Molecular target: T1, human TRPM8 (Homo sapiens, UniProt Q7Z2W7)
T1 construct: expressed in transfected cells
Assay: In Vitro human TRPM8 Functional Assay (intracellular Ca2+, Fluo4, FDSS, menthol activation)
Format: cell-based
Settings: HEK293 cells stably expressing human TRPM8; activation with L-(-)-Menthol; 11-point dose-response
Procedure, shortened: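 Fluo4-loaded HEK293 cells stably expressing TRPM8 were preincubated with compound for 5 min at room temperature, then stimulated with L-menthol (20 μl of 90 μM stock) while fluorescence was read. IC50 values come from 11-point curves fitted to the mean of duplicate wells.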

T1 sequence (Q7Z2W7 whole entry): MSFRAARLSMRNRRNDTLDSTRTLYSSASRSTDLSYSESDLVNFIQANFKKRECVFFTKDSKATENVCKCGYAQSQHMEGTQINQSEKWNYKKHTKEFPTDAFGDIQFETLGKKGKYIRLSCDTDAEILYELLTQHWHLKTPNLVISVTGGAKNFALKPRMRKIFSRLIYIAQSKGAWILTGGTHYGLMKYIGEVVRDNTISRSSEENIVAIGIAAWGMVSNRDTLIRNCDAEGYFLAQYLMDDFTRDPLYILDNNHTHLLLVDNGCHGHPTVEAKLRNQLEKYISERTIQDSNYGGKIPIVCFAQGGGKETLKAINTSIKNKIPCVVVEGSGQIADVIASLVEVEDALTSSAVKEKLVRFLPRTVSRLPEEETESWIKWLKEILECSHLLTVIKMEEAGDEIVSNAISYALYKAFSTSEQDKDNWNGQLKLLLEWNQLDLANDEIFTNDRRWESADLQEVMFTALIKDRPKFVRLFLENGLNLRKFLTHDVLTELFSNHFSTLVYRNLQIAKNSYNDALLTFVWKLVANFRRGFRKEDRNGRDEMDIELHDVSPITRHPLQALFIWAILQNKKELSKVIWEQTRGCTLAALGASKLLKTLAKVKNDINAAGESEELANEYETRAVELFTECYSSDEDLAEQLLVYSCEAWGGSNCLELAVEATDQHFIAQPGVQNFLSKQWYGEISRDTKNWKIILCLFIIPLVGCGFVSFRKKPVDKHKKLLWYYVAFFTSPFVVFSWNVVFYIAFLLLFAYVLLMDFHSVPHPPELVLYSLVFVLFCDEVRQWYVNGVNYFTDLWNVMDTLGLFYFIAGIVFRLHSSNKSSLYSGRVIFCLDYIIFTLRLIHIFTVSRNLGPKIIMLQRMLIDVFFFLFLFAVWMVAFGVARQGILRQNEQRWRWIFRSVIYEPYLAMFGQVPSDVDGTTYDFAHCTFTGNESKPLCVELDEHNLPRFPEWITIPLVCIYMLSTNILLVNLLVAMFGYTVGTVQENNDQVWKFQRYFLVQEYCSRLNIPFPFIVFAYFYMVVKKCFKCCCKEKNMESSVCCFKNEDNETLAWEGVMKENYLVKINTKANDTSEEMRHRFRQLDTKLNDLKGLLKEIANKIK

IC50 [nM]	SMILES
< 1000	O=C(O)c1ccc(S(=O)(=O)N(Cc2ccccc2)c2ncc(C(F)(F)F)cc2Cl)cc1F [Example 191, 4-(N-Benzyl-N-(3-chloro-5-(trifluoromethyl)pyridin-2-yl)sulfamoyl)-2-fluorobenzoic acid]
< 1000	NC(=O)Nc1ccc(S(=O)(=O)N(Cc2ccccc2)c2ncc(C(F)(F)F)cc2Cl)cc1 [Example 195, N-Benzyl-N-(3-chloro-5-(trifluoromethyl)pyridin-2-yl)-4-ureidobenzenesulfonamide]
< 1000	O=C(O)c1ccc(S(=O)(=O)N(Cc2noc(-c3ccccc3)n2)c2ncc(C(F)(F)F)cc2Cl)cc1 [Example 199, 4-(N-(3-Chloro-5-(trifluoromethyl)pyridin-2-yl)-N-((5-phenyl-1,2,4-oxadiazol-3-yl)methyl)sulfamoyl)benzoic acid]

The remaining lines, values behind:

SMILES	IC50 [nM]
O=C(O)c1ccc(S(=O)(=O)N(CC2CCCC2)c2ncc(C(F)(F)F)cc2Cl)cc1 [Example 192, 4-(N-(3-Chloro-5-(trifluoromethyl)pyridin-2-yl)-N-(cyclopentylmethyl)sulfamoyl)benzoic acid]	< 1000
O=C(O)c1ccc(S(=O)(=O)N(c2ncc(C(F)(F)F)cc2Cl)C2(c3ccccc3)CC2)cc1 [Example 193, 4-(N-(3-Chloro-5-(trifluoromethyl)pyridin-2-yl)-N-(1-phenylcyclopropyl)sulfamoyl)benzoic acid]	< 1000
CN(C)S(=O)(=O)Nc1ccc(S(=O)(=O)N(Cc2ccccc2)c2ncc(C(F)(F)F)cc2Cl)cc1 [Example 194, N-Benzyl-N-(3-chloro-5-(trifluoromethyl)pyridin-2-yl)-4-((N,N-dimethylsulfamoyl)amino)benzenesulfonamide]	< 1000
NS(=O)(=O)Nc1ccc(S(=O)(=O)N(Cc2ccccc2)c2ncc(C(F)(F)F)cc2Cl)cc1 [Example 196, N-Benzyl-N-(3-chloro-5-(trifluoromethyl)pyridin-2-yl)-4-(sulfamoylamino)benzenesulfonamide]	< 1000
C[C@@H](c1ccccc1)N(c1ncc(C(F)(F)F)cc1Cl)S(=O)(=O)c1ccc(C(=O)O)cc1 [Example 197, (S)-4-(N-(3-Chloro-5-(trifluoromethyl)pyridin-2-yl)-N-(1-phenylethyl)sulfamoyl)benzoic acid]	< 1000
O=C(O)c1ccc(S(=O)(=O)N(Cc2csc(-c3ccccc3)n2)c2ncc(C(F)(F)F)cc2Cl)cc1 [Example 198, 4-(N-(3-Chloro-5-(trifluoromethyl)pyridin-2-yl)-N-((2-phenylthiazol-4-yl)methyl)sulfamoyl)benzoic acid]	< 1000

— patent US20120094964A1, “SULFAMOYL BENZOIC ACID DERIVATIVES AS TRPM8 ANTAGONISTS” (priority 2009, published 2012)
